Source: PMC4117522, “Proteasome Inhibitors Alter Levels of Intracellular Peptides in HEK293T and SH-SY5Y Cells” (PLoS ONE, 2014)
Where “and” joins values, the source holds several entries; their conditions need not be identical. Equal values may be shown once.

Assays:
[1] = target: T1, proteasome (beta 5, chymotrypsin-like activity) in HEK293T cell extract (Homo sapiens, UniProt P20618+P28074); experiment: Proteasome activity in HEK293T cell extracts with beta 5-selective substrate Suc-Leu-Leu-Val-Tyr-AMC; format: biochemical
T1 construct: endogenous in cells; host or cells: HEK293T
Procedure: All enzyme assays described below were performed in the linear range of the assay, as determined from time-course studies. HEK293T cells were lysed by sonication in 50 mM TrisHCl buffer, pH 7.5, containing 40 mM KCl, 5 mM MgCl2, 0.5 mM ATP, and 1 mM DTT (Buffer 1).
To measure proteasome activity, a 1∶50 dilution of the cell extract was pre-incubated with the inhibitor and Buffer 1 for 30 min, followed by addition of 100 µM final concentration of the proteasome substrate succinyl-Leu-Leu-Val-Tyr-7-amino-4-methylcoumarin (Suc-Leu-Leu-Val-Tyr-AMC). After incubation at 37°C for 1 hour, proteasomal activity was quantified by fluorescence measurement of the substrate (380 nm excitation, 460 nm emission).
Figure 2 Inhibition of proteasome activity in HEK293T cells with various proteasome inhibitors. HEK293T cell extract was treated with increasing concentrations of the indicated compound for […] and incubation for 1 hour […]. Enzyme activity was determined by fluorescence measurement of AMC. The resulting activity is expressed as percent enzyme activity relative to the control reaction without inhibitor.

[2] = test system: HEK293T cells; experiment: Quantitative peptidomics (TMAB isotopic labels, LC-MS/MS) of inhibitor-treated HEK293T cells; format: cell-based, human
Procedure: HEK293T and SH-SY5Y cells were grown to 80–90% confluence in DMEM and RPMI supplemented with 10% fetal bovine serum and penicillin/streptomycin. A single plate of cells (150 mm×25 mm) was used for each group. At the start of the experiment, media were removed from the plates and cells were washed with DPBS (138 mM NaCl, 8.06 mM Na2HPO4, 2.67 mM KCl, 1.47 mM KH2PO4, 0.9 mM CaCl2 and 0.49 mM MgCl2). This was followed by addition of serum-free media containing the proteasome or aminopeptidase inhibitors, or 0.05% DMSO as a control for the inhibitors that were soluble in DMSO. Each experiment consisted of two control groups and two or three replicate groups of cells treated with one of the inhibitors. The cells were incubated at 37°C for 20 minutes, following which media containing the inhibitor was removed, cells were washed with DPBS, detached from the plate by scraping into DPBS (without trypsin), and centrifuged at 800×g for 5 min. The wash buffer was supplemented with the appropriate inhibitor at the same concentration as used for the treatment, thereby ensuring that the changes induced in peptide levels were not reversed during harvesting of cells due to possible dissociation of the reversible inhibitors. The wash time (including centrifugation) was 15 minutes, for a total treatment time of 35 minutes. After centrifugation, the cell pellet was resuspended in 1 ml of 80°C water and incubated in an 80°C water bath for 20 minutes to inactivate proteases. The mixture was again centrifuged (13,000×g, 30 min, 4°C) and was stored at −80°C overnight. For peptide extraction, the samples were thawed and centrifuged again. The lysate was subsequently cooled on ice and acidified with HCl to a final concentration of 10 mM. After 15 min incubation on ice, the lysate was centrifuged at 13,000×g for 30 min at 4°C. To the supernatant, 250 µL of dibasic sodium phosphate (0.4 M, pH 9.5) was added and the mixture was stored at −80°C until labeling.
The labeling protocol has been earlier described in detail. Each group within an experiment (control/treated) was labeled with a different isotopic tag. The TMAB-NHS labels were dissolved in DMSO to a concentration of 400 µg/µL and 15 mg of label was used per 150 mm plate of cells. […] At the beginning, the pH of the peptide extract was adjusted to 9.5 with 1 M NaOH. Labeling was performed over 8 rounds; 4.69 µL of the label was added to the extract every 20 min. The pH was measured between each round and if necessary, brought back to 9.5 for the first five rounds. For rounds 6–8, the pH was not adjusted after the addition of the TMAB-NHS reagent. After the final round of label addition, the pH was adjusted to 9.5 again and the extracts were incubated at room temperature for 90 min. Thereafter, 30 µL of 2.5 M glycine was added to quench any unreacted label. Following 40 min incubation at room temperature, the labeled extracts for a single experiment were pooled and filtered through Amicon Ultracel-10 K units. It is important to ensure that only N-terminal amines and lysine side-chain amines of peptides are TMAB-labeled and not tyrosines. To hydrolyze any labeled tyrosine, 30 µL of a 2 M solution of hydroxylamine hydrochloride (pH 3.7) was added over three rounds to the pooled and filtered sample. The pH was measured after the addition of hydroxylamine and adjusted to 9.0 with 1 M NaOH. The samples were desalted through PepClean C-18 spin columns (Thermo Scientific, Rockford, IL, USA) by following manufacturer’s instructions. Peptides were eluted using 160 µL of 0.5% TFA and 70% acetonitrile, frozen at −80°C and then lyophilized in a vacuum centrifuge and stored at −80°C until analysis by mass spectrometry.
The LC-MS/MS experiments were performed on a Synapt G2 mass spectrometer coupled to a NanoAcquity capillary liquid chromatography system (Waters Co., Milford, MA, USA).

CN1C/C(=C/c2ccc(B(O)O)cc2)C(=O)/C(=C\c2ccc(B(O)O)cc2)C1 [AM114, reference compound]
potency relative to clasto-Lactacystin β-lactone (fold less potent) ([1]; Suc-Leu-Leu-Val-Tyr-AMC): approximately 10 fold | inhibition of proteasome activity at the highest concentration tested ([1]; highest concentration tested): ≤ 35% | Relative Levels of peptide ADKVPKTAENFRAL (PPIA) ([2]; 1 uM, 35', HEK): 1.29 and 0.68 and 0.72 | Relative Levels of peptide AGAAVDELGKVLTPTQV (PEBP1) ([2]; 1 uM, 35', HEK): 1.53 and 0.85 | Relative Levels of peptide AKADGIVSKNF (RPS21) ([2]; 1 uM, 35', HEK): 0.95 and 0.82 and 0.98 | Relative Levels of peptide APIKVGDAIPAVEVF (PRDX5) ([2]; 1 uM, 35', HEK): 1.44 and 0.88 | Relative Levels of peptide APPTAYIDFARQK (TPI1) ([2]; 1 uM, 35', HEK): 1.67 and 1.17 | Relative Levels of peptide ASQPDVDGFLVGGASLKPEFVDIINAKQ (TPI1) ([2]; 1 uM, 35', HEK): 0.84 and 1.26 and 1.47 | Relative Levels of peptide AVDGEPLGRVSF (PPIA) ([2]; 1 uM, 35', HEK): 1.20 and 0.93 and 0.87 | Relative Levels of peptide Ac-AAPVDLELKKAFTEL (PFDN1) ([2]; 1 uM, 35', HEK): 1.09 and 0.91 and 0.97 | Relative Levels of peptide Ac-AEEGIAAGGVMDVNTALQEVLKT (RPS12) ([2]; 1 uM, 35', HEK): 0.90 and 1.10 | Relative Levels of peptide Ac-ANLERTFIAIKPDGV (NME2) ([2]; 1 uM, 35', HEK): 1.00 and 1.33 | Relative Levels of peptide Ac-ASKRALVIL (PARK7) ([2]; 1 uM, 35', HEK): 1.00 | Relative Levels of peptide Ac-ASKRALVILA (PARK7) ([2]; 1 uM, 35', HEK): 0.86 and 1.00 | Relative Levels of peptide Ac-MDTSRVQPIKL (RPS28) ([2]; 1 uM, 35', HEK): 0.94 and 1.00 | Relative Levels of peptide Ac-MDTSRVQPIKLAR (RPS28) ([2]; 1 uM, 35', HEK): 1.18 and 1.12 and 1.00 | Relative Levels of peptide Ac-MDTSRVQPIKLARVTKV (RPS28) ([2]; 1 uM, 35', HEK): 1.29 and 1.14 | Relative Levels of peptide Ac-SSEEGKLFVGGLNF (RBM3) ([2]; 1 uM, 35', HEK): 0.90 and 1.03 | Relative Levels of peptide Ac-SYGRPPPDVEGMTSLKVDNL (SRSF2) ([2]; 1 uM, 35', HEK): 0.91 and 1.06 and 1.09 | Relative Levels of peptide Ac-[…] (COX6B1) ([2]; 1 uM, 35', HEK): 1.03 and 0.97 | Relative Levels of peptide GESDDSILRLAKADGIVSKNF (RPS21) ([2]; 1 uM, 35', HEK): 1.09 and 0.90 and 0.85 | Relative Levels of peptide GFGDLKSPAGLQVL (EEF1B2) ([2]; 1 uM, 35', HEK): 1.74 and 1.18 | Relative Levels of peptide GISTPEELGLDKV (COX5A) ([2]; 1 uM, 35', HEK): 1.60 and 1.00 | Relative Levels of peptide KHTGPGILSM (PPIA) ([2]; 1 uM, 35', HEK): 1.13 and 1.00 and 0.92 | Relative Levels of peptide PGIVELPTLEEL (NDUFA8) ([2]; 1 uM, 35', HEK): 1.07 and 0.80 and 0.67 | Relative Levels of peptide SLGELIGTLNA (TPI1) ([2]; 1 uM, 35', HEK): 1.06 and 0.59 and 0.88 | Relative Levels of peptide VNPTVFFDI (PPIA) ([2]; 1 uM, 35', HEK): 1.20 and 0.67 and 0.80 | change in levels of intracellular peptides (peptidome) ([2]; HEK293T cells, 35 min, 2.5 µM MG132, 1 µM other inhibitors): did not produce a substantial change in levels of peptides
